Laboratory results from US20180312886A1, “MICROBIAL PRODUCTION OF CHEMICAL PRODUCTS AND RELATED COMPOSITIONS, METHODS AND SYSTEMS” (CARGILL INCORPORATED, priority 2014, published 2018).

Assays:
[1] = target: KASI ketoacyl-ACP synthase (e.g., fabB in E. coli) (Escherichia coli, UniProt P0A953); conditions: KX3_0001, fed-batch medium, 24 h
Protocol: Cultures were started from freezer stocks by standard practice (Sambrook and Russell, 2001) into 50 mL of LB media plus 100 μg/mL ampicillin and grown to stationary phase overnight at 37° C. with rotation at 225 rpm. Five ml of this culture were transferred to 100 ml of fed-batch or AM2 media plus 40 g/L glucose, 100 kg/ml ampicillin, 1 mM IPTG in triplicate 250-ml baffled flasks, and incubated at 37° C., 225 rpm. […] Dry cell weight (DCW) is calculated as 0.33 times the measured OD600 value, based on baseline DCW to OD600 determinations. All data are the average of triplicate cultures.

[2] = system: fatty acid synthase system; assay type: cell-based, E. coli

Chain of KASI ketoacyl-ACP synthase (e.g., fabB in E. coli) (P0A953 whole entry): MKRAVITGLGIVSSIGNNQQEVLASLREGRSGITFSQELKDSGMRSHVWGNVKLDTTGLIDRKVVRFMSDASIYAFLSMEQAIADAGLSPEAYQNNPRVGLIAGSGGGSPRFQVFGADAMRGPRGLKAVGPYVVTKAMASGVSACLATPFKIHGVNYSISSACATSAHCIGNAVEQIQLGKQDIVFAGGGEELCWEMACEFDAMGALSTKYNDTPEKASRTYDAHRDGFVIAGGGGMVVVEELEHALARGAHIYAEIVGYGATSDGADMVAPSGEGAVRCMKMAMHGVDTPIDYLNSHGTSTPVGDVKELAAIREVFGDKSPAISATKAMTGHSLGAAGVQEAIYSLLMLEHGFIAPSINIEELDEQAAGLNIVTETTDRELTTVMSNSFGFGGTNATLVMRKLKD

## C/C=C/C/C=C/CCC(=O)[C@H]1O[C@H]1C(N)=O [cerulenin]
[1]
  increase in specific productivity relative to the results without cerulenin: 31 fold
[2]; BX3_0206, SM3 medium, 24 hours
  increase in specific productivity relative to the results without cerulenin: approximately 40 fold
[2]; strain BX3_0194, SM3 medium, cerulenin, 4 hr
  3HP: 0.003 gIL
